Measured values as given in patent US20250304952A1, “DNA ELEMENT RESPONSIVE TO EXTRACHROMOSOMAL DNA IN CANCER CELLS” (The Board of Trustees of the Leland Stanford Junior …, priority 2021, published 2025).

Key:
Assay type in all cases: cell-based, human
MYC in SNU16 = assay: Oncogene RNA measured by RT-qPCR in SNU16 (MYC); conditions: 500 nM JQ1, 6 hours
Description: Cells were then treated for 6 hours with 500 nM JQ1 in DMSO unless otherwise indicated (Sigma-Aldrich SML1524) or an equivalent volume of DMSO.
RNA was extracted using RNeasy Plus mini Kit (QIAGEN 74136). Purified RNA was quantified by Nanodrop (Thermo Fisher). For RT-qPCR, 50 ng of RNA, 1× Brilliant II qRT-PCR mastermix with 1 μL RT/RNase block (Agilent 600825), and 200 nM forward and reverse primer were used. Each Ct value was measured using Lightcycler 480 (Roche) and each mean dCt was averaged from duplicate qRT-PCR reaction and performed in biological triplicate. Relative MYC RNA level (RT-qPCR primers MYC_exon3_fw and MYC_exon3_rv) was calculated by ddCt method compared to 18S and GAPDH controls (RT-qPCR primers GAPDH_fw, GAPDH_rv, 18S_fw, 18S_rv). P values were calculated using a Student's t-test by comparing the relative fold change of biological triplicates.

COLO320-HSR cells = assay: PVT1 promoter-driven NanoLuc luciferase reporter in COLO320-HSR; conditions: JQ1 500 nM, 6 hours
Source text: (§1) We constructed a plasmid containing the 2 kb PVT1 promoter (chr8: 128,804,981-128,806,980, hg19) or the MYC promoter (chr8: 128,745,990-128,748,526, hg19) driving NanoLuc luciferase (PVT1p-nLuc) and a constitutive thymidine kinase (TK) promoter driving Firefly luciferase as an internal control (FIG. 3b). Briefly, pGL4-tk-luc2 (Promega) was digested with KpnI and PciI. A sequence containing multiple cloning sites ([…]), NanoLuc and BGH polyA sequence were inserted in tandem into the vector using Gibson assembly (NEBuilder DNA assembly mix). Next, the PVT1 promoter or the MYC promoter was inserted into the vector via NheI and SalI digestion to generate the final reporter construct. For the negative control, a minimal promoter ([…]) was used in place of the PVT1 promoter. For constructing plasmids with a cis-enhancer, an enhancer (chr8: 128347148-128348310, hg19; positive H3K27ac mark and looping to the PVT1 promoter in HiChIP, overlapping with BRD4 ChIP peak and ATAC-seq peak in COLO320-DM) was inserted directly 5′ to the promoter into the region with multiple cloning sites. […] Luciferase levels were quantified using Nano-Glo Dual reporter luciferase assay (Promega). The reporter level was calculated as the ratio of NanoLuc reading over firefly reading using Tecan M1000. Mean and standard errors were calculated based on three biological replicates with three technical replicate each.

FGFR2 in SNU16 = assay: Oncogene RNA measured by RT-qPCR in SNU16 (FGFR2); conditions: 500 nM JQ1, 6 hours
ecDNA+ COLO320-DM cells = assay: PVT1 promoter-driven NanoLuc luciferase reporter in COLO320-DM; conditions: JQ1 500 nM, 6 hours
Source text: as §1

SMILES: Cc1sc2c(c1C)C(c1ccc(Cl)cc1)=N[C@@H](CC(=O)OC(C)(C)C)c1nnc(C)n1-2 [JQ1]
- ecDNA-derived transcription of MYC (MYC in SNU16): reduced
- repression of PVT1p-mediated transcription (COLO320-HSR cells): ~2 fold
- ecDNA-derived transcription of FGFR2 (FGFR2 in SNU16): reduced
- repression of PVT1p-mediated transcription (ecDNA+ COLO320-DM cells): ~5 fold
